The results in this text go back to paper PMC9521575, “Multiple tachykinins and their receptors characterized in the gastropod mollusk Pacific abalone: Expression, signaling cascades, and potential role in regulating lipid metabolism” (Frontiers in Endocrinology, 2022).

Non-standard residues stand in square brackets, D forms with d. Residues, ends and D or L forms follow the SMILES beside them. No end group written: not given here. pGlu = O=C1CC[C@@H](C(=O)O)N1

Experiment [1] relates to Hdh-TKRL. Nature of the experiment: SRE-Luc luciferase reporter assay in Hdh-TKRL-expressing HEK293 cells. The experiment is classed as cell-based, Haliotis discus hannai. Conditions: for EC50: HEK293 cells, peptide treatment 6 h, Supplementary Table 4, read-out: EC50 for Hdh-TKRL activation, SRE-Luc reporter. How it is done: (§1) Human embryonic kidney 293 (HEK293) cells were maintained in Dulbecco’s modified Eagle medium (DMEM; Gibco, Loughborough, UK) containing 10% fetal bovine serum (FBS; Hyclone, GE Healthcare, Chicago, IL, USA) and 1% penicillin/streptomycin (P/S; Invitrogen) at 37°C in 5% CO2. Sixteen hours before transfection, HEK293 cells were seeded into 24-well plates (5 × 10^4 cells/well). Transfection and luciferase activities were analyzed as previously described ([39]). Briefly, HEK293 cells were transfected with 100 ng of pcDNA3-HA expression plasmid containing Hdh-TKR (pcDNA3-HA-Hdh-TKR) or vehicle pcDNA3-HA plasmid using 0.9 μL of a polyethyleneimine transfection reagent (Sigma-Aldrich, St. Louis, MO, USA), along with 100 ng of a luciferase reporter plasmid containing cAMP response element (CRE-Luc) or serum response element (SRE-Luc), and 100 ng of a pRSV-β-galactosidase expression plasmid as an internal control. At 3 h after transfection, the culture medium was replaced by new DMEM with 1% P/S and 10% FBS, and the HEK293 cells were cultured for a further 30 h and then maintained in DMEM without FBS for 16 h. Finally, the HEK293 cells were treated with synthesized peptides, forskolin (Sigma-Aldrich), 12-O-tetradecanoylphorbol-13-acetate (TPA; Sigma-Aldrich), or an equal volume of peptide-free medium (as vehicle control) for 6 h. Luciferase activity was analyzed using a microplate-luminometer (Berthold Tech., Bad Wildbad, Germany) and normalized to the β-galactosidase activity, detected by absorbance at 405 nm using a microplate reader (Tecan, Mannedorf, Switzerland).

Experiment [2] concerns Hdh-TKRS. Kind of experiment: CRE-Luc luciferase reporter assay in Hdh-TKRS-expressing HEK293 cells. The experiment is classed as cell-based, Haliotis discus hannai. To be noted: for EC50: HEK293 cells, peptide treatment 6 h, Supplementary Table 3, read-out: EC50 for Hdh-TKRS activation, CRE-Luc reporter. The protocol:
as §1
(In general: A reporter such as luciferase makes a cellular process visible.)

Experiment [3] concerns Hdh-TKRS. Nature of the experiment: SRE-Luc luciferase reporter assay in Hdh-TKRS-expressing HEK293 cells. The experiment is classed as cell-based, Haliotis discus hannai. Conditions: for EC50: HEK293 cells, peptide treatment 6 h, Supplementary Table 3, read-out: EC50 for Hdh-TKRS activation, SRE-Luc reporter. The protocol: as §1
In experiment [4] the test system is Hdh-TKRL. Kind of experiment: Ca2+ mobilization assay (aequorin luminescence) in Hdh-TKRL-transfected CHO-K1 cells. The experiment is classed as cell-based, Haliotis discus hannai. Conditions: Hdh-TKRL- and aequorin-expressing CHO-K1 cells; luminescence relative to maximal response at 10^-6 M; n = 3 or 4; read-out: EC50 on intracellular Ca2+ mobilization. The protocol:
(§2) Ca^2+ mobilization assays were performed as described previously ([39]). Briefly, Chinese hamster ovary K1 (CHO-K1) cells were maintained in DMEM-F12 Nutrient Mixture Ham supplemented with 10% FBS (Hyclone) and 1% P/S (Invitrogen) at 37°C in 5% CO2. Cells were grown in a monolayer to 60% confluency in 100 mm dishes (1.5 × 10^6 cells) and transiently transfected with 2 μg of pcDNA3-HA-Hdh-TKR plasmid with 2 μg of a Ca^2+-reporter aequorin plasmid and 2 μg of Gαq plasmid using 18 μL of FuGENE6 transfection reagent (Promega). The cells were washed in assay buffer including phenol red-free DMEM/F-12 with 0.1% bovine serum albumin (BSA) and 1% P/S and collected by brief centrifugation. Probenecid (1.25 mM final concentration, Invitrogen) and coelenterazine (5 μM, Gold Biotech., St. Louis, MO, USA) were added to resuspended CHO-K1 cells in 5 mL of assay buffer and the cells were gently agitated for 2.5 h using a magnetic stirrer at room temperature and shielded from light. […] While stirring gently, 50 μL of the cell suspension was injected into a luminescence microplate reader (Berthold Tech.), and luminescence was recorded for 20 s and for a further 10 s after injection of the assay buffer, including 0.2% Triton X-100 to measure the total Ca^2+ response. […]

Experiment [5] has as its system Hdh-TKRL. Nature of the experiment: CRE-Luc luciferase reporter assay in Hdh-TKRL-expressing HEK293 cells. In kind it is cell-based, Haliotis discus hannai. To be noted: for EC50: HEK293 cells, peptide treatment 6 h, Supplementary Table 4, read-out: EC50 for Hdh-TKRL activation, CRE-Luc reporter. How it is done:
as §1

Experiment [6] deals with Hdh-TKRS. Kind of experiment: Ca2+ mobilization assay (aequorin luminescence) in Hdh-TKRS-transfected CHO-K1 cells. In kind it is cell-based, Haliotis discus hannai. To be noted: Hdh-TKRS- and aequorin-expressing CHO-K1 cells; luminescence relative to maximal response at 10^-6 M; n = 3 or 4; read-out: EC50 on intracellular Ca2+ mobilization. How it is done:
as §2
(In general: A change in cytosolic calcium serves as a functional read-out for many receptors and channels.)

The test system of experiment [7] is Hdh-TKRL-mediated phosphorylation of ERK1/2. Nature of the experiment: Western blotting of ERK1/2 phosphorylation in Hdh-TKRL-transfected HEK293 cells. To be noted: inhibitor 10^-5 M pre-incubated 60 min, then Hdh-TK2-2 for 5 min, western blot. The experiment is classed as cell-based, Human. How it is done:
(§3) HEK293 cells were seeded into 6-well plates (0.3 × 10^6 cells/well) and transfected with 3 μg of pcDNA3-HA-Hdh-TKR plasmids or vehicle pcDNA3-HA plasmid as described for the luciferase reporter assays. At 24 h after transfection, the cells were incubated with serum-free DMEM for 6 h at 37°C and then exposed to a PKA inhibitor (H89, 10^-5 M; Sigma-Aldrich) or PKC inhibitor (Gö6983, 10^-5 M; Sigma-Aldrich) for 60 min. After the medium was replace with fresh serum-free DMEM, the cells were exposed to Hdh-TK-2-2 peptide (5×10^-9 or 10^-7 M) or TPA (10^-7 M) for a further 5 min. The methods employed for cell lysate preparation, polyacrylamide gel electrophoresis, protein transfer to nitrocellulose membranes, and membrane washing were from a previous report ([39]). The membranes were incubated with a monoclonal mouse p44/42 MAPK, rabbit phospho-p44/42 MAPK (ERK1/2) (Thr202/Tyr204) (Cell Signaling, Danvers, MA, USA), or mouse GAPDH (Santa Cruz Biotechnology, Santa Cruz, CA, USA) primary antibody at 4°C for 16 h, followed by incubation with goat anti-mouse IgG-HRP or goat anti-rabbit IgG-HRP secondary antibody (Santa Cruz Biotechnology, Santa Cruz, CA, USA) at room temperature for 2 h. […]
A general note: In western blotting, separated proteins are transferred to a membrane and probed.

Experiment [8] relates to Hdh-TKRS-mediated phosphorylation of ERK1/2. Kind of experiment: Western blotting of ERK1/2 phosphorylation in Hdh-TKRS-transfected HEK293 cells. The experiment is classed as cell-based, Human. Conditions: inhibitor 10^-5 M pre-incubated 60 min, then Hdh-TK2-2 for 5 min, western blot. How it is done: as §3
The target in experiment [9] is Hdh-TKRS (tachykinin receptor, short isoform) (Haliotis discus hannai).
In experiment [10] the target is Hdh-TKRL (tachykinin receptor, long isoform) (Haliotis discus hannai).
Setting [11] is: Hdh-TKRL-transfected HEK293 cells, n = 3.
[12] abbreviates: Hdh-TKRS-transfected HEK293 cells, n = 3.

As to `CC(C)[C@H](NC(=O)CNC(=O)[C@H](Cc1c[nH]cn1)NC(=O)[C@H](Cc1ccccc1)NC(=O)CNC(=O)[C@H](Cc1ccccc1)NC(=O)[C@H](Cc1c[nH]cn1)NC(=O)[C@@H]1CCCN1C(=O)[C@@H]1CCC(=O)N1)C(=O)N[C@@H](CCCNC(=N)N)C(N)=O` [Hdh-TK1-3] ([pGlu]PHFGFHGVR-NH2), the concentration for a half-maximal effect (EC50) (commonly the concentration needed to bring the measured effect to its halfway point) worked out at 155 nM in the experiment with Hdh-TKRL [1]; 15.1 nM in the experiment on Hdh-TKRS [2]; 171 nM in the experiment on Hdh-TKRS [3]; 1.1 nM in the experiment on Hdh-TKRL [4]; 284 nM in the experiment on Hdh-TKRL [5]; 1.7 nM in the experiment on Hdh-TKRS [6].

For the molecule `COc1ccc2c(c1)c(C1=C(c3c[nH]c4ccccc34)C(=O)NC1=O)cn2CCCN(C)C` [Gö6983], the “effect of inhibitor on Hdh-TKRL-mediated phosphorylation of ERK1/2” value in experiment [7] was “almost abolished”. In addition, in experiment [8], the “effect of inhibitor on Hdh-TKRS-mediated phosphorylation of ERK1/2” value is “almost abolished”.

Regarding `O=S(=O)(NCCNC/C=C/c1ccc(Br)cc1)c1cccc2cnccc12` [H89], the “effect of inhibitor on Hdh-TKRL-mediated phosphorylation of ERK1/2” value in experiment [7] is “decreased”.

In the case of `CC(C)[C@H](NC(=O)[C@H](Cc1ccccc1)NC(=O)CNC(=O)[C@H](Cc1ccccc1)NC(=O)[C@H](Cc1c[nH]cn1)NC(=O)[C@H](CCCNC(=N)N)NC(=O)CN)C(=O)NCC(=O)N[C@@H](CO)C(=O)N[C@@H](CCCNC(=N)N)C(N)=O` [Hdh-TK2-1] (H-GRHFGFVGSR-NH2), the EC50 with Hdh-TKRL [1] came to 141 nM; in the experiment on Hdh-TKRS [2] it was 180 nM; in the experiment on Hdh-TKRS [3], 3340 nM; in the experiment with Hdh-TKRL [4], 5.2 nM; in the experiment on Hdh-TKRL [5] it was 1100 nM; with Hdh-TKRS [6], 4 nM.

For “APGWamide [abalone APGWamide peptide used as a negative control, reference compound]”, the “SRE-Luc reporter activity (in words)” value in the experiment on Hdh-TKRL [1] (setting [11]) and in the experiment on Hdh-TKRS [3] (setting [12]) was “did not activate” in each case. The “CRE-Luc reporter activity (in words)” value in the experiment with Hdh-TKRS [2] (setting [12]) and in the experiment on Hdh-TKRL [5] (setting [11]) was “did not activate” throughout.

B1: Hdh-TK2-2 (peptide)
peptide: KPHFGFHGSR-NH2
B1 registered an EC50 of intracellular Ca2+ mobilization (aequorin luminescence) in Hdh-TKRS-transfected CHO-K1 cells in experiment [9] of 1.2 nM. In [10], this molecule came in with an EC50 of intracellular Ca2+ mobilization (aequorin luminescence) in Hdh-TKRL-transfected CHO-K1 cells of 0.7 nM.

B2: Hdh-TK2-1 (peptide)
peptide: GRHFGFVGSR-NH2
The molecule B2 gave an EC50 of intracellular Ca2+ mobilization (aequorin luminescence) in Hdh-TKRS-transfected CHO-K1 cells in experiment [9] of 4 nM. Also, the EC50 of intracellular Ca2+ mobilization (aequorin luminescence) in Hdh-TKRL-transfected CHO-K1 cells in experiment [10] is 5.2 nM.

B3: Hdh-TK1-1 (peptide)
peptide: FGYVGSR-NH2
B3 gave an EC50 of intracellular Ca2+ mobilization (aequorin luminescence) in Hdh-TKRS-transfected CHO-K1 cells in [9] of 14.7 nM. The same molecule displayed an EC50 of intracellular Ca2+ mobilization (aequorin luminescence) in Hdh-TKRL-transfected CHO-K1 cells in experiment [10] of 9.4 nM.

B4: Hdh-TK1-3 (peptide)
peptide: [pGlu]PHFGFHGVR-NH2
SMILES: CC(C)[C@H](NC(=O)CNC(=O)[C@H](Cc1c[nH]cn1)NC(=O)[C@H](Cc1ccccc1)NC(=O)CNC(=O)[C@H](Cc1ccccc1)NC(=O)[C@H](Cc1c[nH]cn1)NC(=O)[C@@H]1CCCN1C(=O)[C@@H]1CCC(=O)N1)C(=O)N[C@@H](CCCNC(=N)N)C(N)=O
B4 had an EC50 of intracellular Ca2+ mobilization (aequorin luminescence) in Hdh-TKRS-transfected CHO-K1 cells in experiment [9] of 1.7 nM. The molecule further gave an EC50 of intracellular Ca2+ mobilization (aequorin luminescence) in Hdh-TKRL-transfected CHO-K1 cells in experiment [10] of 1.1 nM.

B5: Hdh-TK1-2 (peptide)
peptide: TELGFGYVGSR-NH2
B5 yielded an EC50 of intracellular Ca2+ mobilization (aequorin luminescence) in Hdh-TKRS-transfected CHO-K1 cells in experiment [9] of 46 nM. The molecule also displayed an EC50 of intracellular Ca2+ mobilization (aequorin luminescence) in Hdh-TKRL-transfected CHO-K1 cells in [10] of 32 nM.
